This note sets out measurements from ChEMBL document CHEMBL3227965, “Synthesis of 5-selenium-substituted uracil derivatives. Inhibition of thymidylate synthetase by 5-hydroseleno-2'-deoxyuridylate” (J Med Chem, 1979).

Activity calls are given as the source filed them. No cut-off for these calls is given here.

Assay [1] has as its system L1210. In words: Cytotoxicity against mouse L1210 cells assessed as growth inhibition at 5 x 10^-6 M. The format is functional, cell-based.
Assay [2] concerns the target T1, Thymidylate synthase (Lactobacillus casei, UniProt P00469).
T1 sequence (P00469 whole entry): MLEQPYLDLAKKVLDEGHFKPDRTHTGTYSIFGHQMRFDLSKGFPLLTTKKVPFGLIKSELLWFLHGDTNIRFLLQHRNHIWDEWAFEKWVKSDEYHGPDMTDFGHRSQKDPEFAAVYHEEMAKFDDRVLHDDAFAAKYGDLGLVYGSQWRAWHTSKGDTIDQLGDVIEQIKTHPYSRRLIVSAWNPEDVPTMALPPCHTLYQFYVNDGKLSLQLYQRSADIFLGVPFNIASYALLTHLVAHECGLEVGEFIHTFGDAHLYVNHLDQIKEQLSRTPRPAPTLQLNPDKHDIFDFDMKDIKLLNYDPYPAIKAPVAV
As to the kind of experiment: Inhibition of dichloromethotrexate-resistant Lactobacillus casei thymidylate synthase by Dixon plot method. Further details: species or system Lacticaseibacillus casei.

Assay [3] concerns L1210. In words: Cytotoxicity against mouse L1210 cells assessed as growth inhibition at 10^-4 M. The format is functional, cell-based.
Assay [4] deals with T1, Thymidylate synthase. As to the kind of experiment: Reversible competitive inhibition of dichloromethotrexate-resistant Lactobacillus casei thymidylate synthase using […] as substrate by Dixon plot method. Further details: species or system Lacticaseibacillus casei. Particulars: read-out: Ki(app).

With `O=c1[nH]c(=O)n([C@H]2C[C@H](O)[C@@H](CO)O2)cc1S`, the result with L1210 [1] was Active.

Compound `O=c1[nH]c(=O)n([C@H]2C[C@H](O)[C@@H](COP(=O)(O)O)O2)cc1S` showed a Ki at Thymidylate synthase [2] of 48 nM.

Regarding `O=c1[nH]c(=O)n([C@H]2C[C@H](O)[C@@H](CO)O2)cc1[Se][Se]c1cn([C@H]2C[C@H](O)[C@@H](CO)O2)c(=O)[nH]c1=O`, the result with L1210 [3] was inactive.

For `O=c1[nH]c(=O)n([C@H]2C[C@H](O)[C@@H](COP(=O)(O)O)O2)cc1[SeH]`, the Ki on Thymidylate synthase [4] was determined as 60 nM.
